Test results taken from ChEMBL document CHEMBL1201862, “PubChem BioAssay data set” (2004).
Calls of active or inactive are those of the source.

Experiments:
[1] = molecular target: Trypsin (Sus scrofa, UniProt P00761); assay: trypsin protease activity blockade – biochemical, quenched peptide fluorescence, cherry-pick, selectivity assay for Rce1 protease inhibitor project, dose response (AID 488789)
[2] = molecular target: T1, DNA repair and recombination protein RAD54-like (Homo sapiens, UniProt Q92698); assay: RAD54 Holliday junction migration blockers – biochemical, fluorescence, cherry-picked samples, dose series, confirmation (AID 651657); format: functional
T1 sequence (Q92698 whole entry): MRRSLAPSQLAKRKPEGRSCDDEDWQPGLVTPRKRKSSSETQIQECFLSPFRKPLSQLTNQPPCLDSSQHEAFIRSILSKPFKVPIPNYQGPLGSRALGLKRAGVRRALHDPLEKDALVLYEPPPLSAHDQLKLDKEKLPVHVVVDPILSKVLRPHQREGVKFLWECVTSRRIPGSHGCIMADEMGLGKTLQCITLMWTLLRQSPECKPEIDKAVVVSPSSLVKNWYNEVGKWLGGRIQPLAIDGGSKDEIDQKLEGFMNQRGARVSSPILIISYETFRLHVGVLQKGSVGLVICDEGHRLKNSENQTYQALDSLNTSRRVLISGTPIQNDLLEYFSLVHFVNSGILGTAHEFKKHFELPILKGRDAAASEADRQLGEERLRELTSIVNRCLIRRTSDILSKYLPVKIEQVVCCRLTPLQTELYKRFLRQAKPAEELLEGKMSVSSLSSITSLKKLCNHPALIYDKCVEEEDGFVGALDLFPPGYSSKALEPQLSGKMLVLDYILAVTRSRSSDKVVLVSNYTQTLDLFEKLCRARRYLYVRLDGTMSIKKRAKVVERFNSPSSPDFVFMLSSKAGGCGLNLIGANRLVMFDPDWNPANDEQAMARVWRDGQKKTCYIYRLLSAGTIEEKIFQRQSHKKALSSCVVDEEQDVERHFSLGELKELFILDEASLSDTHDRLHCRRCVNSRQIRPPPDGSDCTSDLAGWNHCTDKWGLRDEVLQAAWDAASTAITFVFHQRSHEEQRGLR

[3] = molecular target: T2, Type-1 angiotensin II receptor (Homo sapiens, UniProt P30556); assay: agonist activity at AGTR1 – cell-based, uHTS hits, selectivity assay for APJ receptor agonist project, dose response (AID 488865); format: functional;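 also: beta-arrestin recruitment to AT1 measured by enzyme fragment complementation luminescence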
T2 sequence (P30556 whole entry): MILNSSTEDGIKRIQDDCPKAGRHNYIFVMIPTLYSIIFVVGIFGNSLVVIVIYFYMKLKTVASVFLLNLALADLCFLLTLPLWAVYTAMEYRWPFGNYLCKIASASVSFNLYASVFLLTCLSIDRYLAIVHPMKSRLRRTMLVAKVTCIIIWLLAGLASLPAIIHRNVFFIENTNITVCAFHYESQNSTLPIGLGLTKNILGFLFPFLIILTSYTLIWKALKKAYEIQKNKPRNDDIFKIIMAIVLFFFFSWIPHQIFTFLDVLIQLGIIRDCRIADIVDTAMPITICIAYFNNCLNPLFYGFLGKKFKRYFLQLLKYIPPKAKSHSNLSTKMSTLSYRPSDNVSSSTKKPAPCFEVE

[4] = tested on: H9c2; assay: cells; format: functional, cell-based; details: Rattus norvegicus, H9c2, Myocardium;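 also: confirmatory concentration-response retest of ultra-high-throughput screening hits for modulation of myocardial damage; cell death induced by hydrogen peroxide oxidative stress; compound pretreatment for 60 min then peroxide exposure for 2 h; potency is for protecting the cells against peroxide damage rather than for killing them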
[5] = molecular target: T3, Voltage-gated N-type calcium channel alpha-1B subunit/Amyloid beta A4 precursor protein-binding family A member 1 (Homo sapiens, UniProt Q00975+Q02410); format: protein assay
T3 sequence (Q00975 whole entry): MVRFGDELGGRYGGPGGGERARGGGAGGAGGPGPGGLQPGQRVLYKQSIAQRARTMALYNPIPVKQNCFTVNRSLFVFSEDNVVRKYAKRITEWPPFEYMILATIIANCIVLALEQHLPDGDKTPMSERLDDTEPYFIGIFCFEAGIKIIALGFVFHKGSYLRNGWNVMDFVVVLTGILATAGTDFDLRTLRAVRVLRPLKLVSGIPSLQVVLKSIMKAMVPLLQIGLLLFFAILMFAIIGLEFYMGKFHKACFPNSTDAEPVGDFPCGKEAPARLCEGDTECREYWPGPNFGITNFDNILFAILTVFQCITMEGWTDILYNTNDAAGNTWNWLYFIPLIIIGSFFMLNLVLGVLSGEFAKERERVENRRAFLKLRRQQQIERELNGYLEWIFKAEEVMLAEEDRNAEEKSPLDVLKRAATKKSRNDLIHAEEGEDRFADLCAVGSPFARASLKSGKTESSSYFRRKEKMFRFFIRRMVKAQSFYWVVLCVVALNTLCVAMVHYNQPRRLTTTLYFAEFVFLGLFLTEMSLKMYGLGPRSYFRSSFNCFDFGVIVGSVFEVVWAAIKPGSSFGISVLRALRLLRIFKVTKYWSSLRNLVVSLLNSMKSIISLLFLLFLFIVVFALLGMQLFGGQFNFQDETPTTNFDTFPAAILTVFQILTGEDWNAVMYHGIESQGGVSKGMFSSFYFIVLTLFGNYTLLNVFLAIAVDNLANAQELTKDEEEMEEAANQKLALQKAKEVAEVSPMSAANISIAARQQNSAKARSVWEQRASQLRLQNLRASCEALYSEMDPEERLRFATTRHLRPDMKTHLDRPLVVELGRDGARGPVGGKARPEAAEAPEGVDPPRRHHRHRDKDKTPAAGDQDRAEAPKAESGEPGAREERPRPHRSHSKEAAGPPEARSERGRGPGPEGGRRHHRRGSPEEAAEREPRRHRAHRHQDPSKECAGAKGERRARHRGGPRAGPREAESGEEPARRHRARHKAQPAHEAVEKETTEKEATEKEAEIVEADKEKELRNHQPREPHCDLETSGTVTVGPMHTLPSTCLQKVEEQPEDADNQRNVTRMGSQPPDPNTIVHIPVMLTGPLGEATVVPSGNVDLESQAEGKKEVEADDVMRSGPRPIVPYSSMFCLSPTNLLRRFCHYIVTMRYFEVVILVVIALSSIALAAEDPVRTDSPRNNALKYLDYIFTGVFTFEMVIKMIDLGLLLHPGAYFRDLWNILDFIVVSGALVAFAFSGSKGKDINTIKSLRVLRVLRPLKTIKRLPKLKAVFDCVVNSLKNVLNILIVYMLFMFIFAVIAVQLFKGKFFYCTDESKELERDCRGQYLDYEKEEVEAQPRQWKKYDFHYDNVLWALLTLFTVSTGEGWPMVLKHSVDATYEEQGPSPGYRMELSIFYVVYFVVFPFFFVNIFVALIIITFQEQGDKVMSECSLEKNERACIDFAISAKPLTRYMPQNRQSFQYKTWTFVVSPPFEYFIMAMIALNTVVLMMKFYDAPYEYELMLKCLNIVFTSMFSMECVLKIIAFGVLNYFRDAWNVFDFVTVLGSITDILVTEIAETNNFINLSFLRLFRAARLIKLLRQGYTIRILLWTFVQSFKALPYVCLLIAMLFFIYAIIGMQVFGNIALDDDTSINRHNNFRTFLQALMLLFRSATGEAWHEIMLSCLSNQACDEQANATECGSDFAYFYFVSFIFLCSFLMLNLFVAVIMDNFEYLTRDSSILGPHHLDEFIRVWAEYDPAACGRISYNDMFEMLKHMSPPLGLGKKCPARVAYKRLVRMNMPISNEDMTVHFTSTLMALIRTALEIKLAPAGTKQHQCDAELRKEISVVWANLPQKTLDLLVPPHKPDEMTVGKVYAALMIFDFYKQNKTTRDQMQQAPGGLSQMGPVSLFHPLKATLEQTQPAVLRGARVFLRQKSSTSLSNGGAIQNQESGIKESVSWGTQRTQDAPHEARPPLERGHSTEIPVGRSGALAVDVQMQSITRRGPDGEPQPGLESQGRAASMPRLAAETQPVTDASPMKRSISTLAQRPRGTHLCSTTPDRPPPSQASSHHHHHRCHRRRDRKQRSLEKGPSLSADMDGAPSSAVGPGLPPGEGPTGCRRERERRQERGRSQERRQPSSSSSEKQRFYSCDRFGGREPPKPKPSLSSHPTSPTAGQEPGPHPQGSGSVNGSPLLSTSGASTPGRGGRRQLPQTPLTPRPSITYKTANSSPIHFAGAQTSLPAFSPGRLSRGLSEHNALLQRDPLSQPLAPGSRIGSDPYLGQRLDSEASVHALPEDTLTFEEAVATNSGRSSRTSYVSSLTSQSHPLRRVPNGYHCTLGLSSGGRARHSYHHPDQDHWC
T3 sequence (Q02410 whole entry): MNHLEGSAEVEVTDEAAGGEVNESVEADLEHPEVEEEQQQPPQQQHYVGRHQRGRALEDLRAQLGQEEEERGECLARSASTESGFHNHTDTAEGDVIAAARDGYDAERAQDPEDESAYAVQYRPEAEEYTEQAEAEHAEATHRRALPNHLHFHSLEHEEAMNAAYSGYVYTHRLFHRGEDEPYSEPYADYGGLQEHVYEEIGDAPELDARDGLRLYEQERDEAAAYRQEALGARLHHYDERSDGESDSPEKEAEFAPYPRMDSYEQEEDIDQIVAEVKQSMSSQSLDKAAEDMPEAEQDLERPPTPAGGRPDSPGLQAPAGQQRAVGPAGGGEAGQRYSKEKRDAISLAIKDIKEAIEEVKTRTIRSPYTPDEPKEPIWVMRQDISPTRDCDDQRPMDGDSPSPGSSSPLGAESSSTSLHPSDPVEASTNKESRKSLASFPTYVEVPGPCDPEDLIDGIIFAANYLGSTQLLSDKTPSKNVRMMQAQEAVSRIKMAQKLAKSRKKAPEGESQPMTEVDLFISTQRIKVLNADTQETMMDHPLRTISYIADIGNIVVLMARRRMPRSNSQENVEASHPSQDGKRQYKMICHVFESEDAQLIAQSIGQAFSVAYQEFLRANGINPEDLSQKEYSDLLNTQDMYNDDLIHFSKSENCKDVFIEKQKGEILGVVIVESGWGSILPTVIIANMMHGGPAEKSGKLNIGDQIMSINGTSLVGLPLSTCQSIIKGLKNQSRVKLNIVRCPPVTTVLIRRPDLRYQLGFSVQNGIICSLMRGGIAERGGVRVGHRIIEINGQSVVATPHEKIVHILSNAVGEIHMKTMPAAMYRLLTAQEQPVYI

[6] = molecular target: T3, Voltage-gated N-type calcium channel alpha-1B subunit/Amyloid beta A4 precursor protein-binding family A member 1; format: protein assay; remark: listed apart in the source
[7] = viability loss in THP-1 monocytes – THP-1 cells, cytotoxicity control for Vif-APOBEC3G degradation inhibitor project, dose response (AID 1117359); format: functional; details: THP-1
[8] = molecular target: Large T antigen (Simian virus 40, UniProt P03070); format: functional, Betapolyomavirus macacae;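 also: Confirmatory-stage PubChem screen for compounds that inhibit SV40 T antigen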
Large T antigen, sequence (P03070 whole entry): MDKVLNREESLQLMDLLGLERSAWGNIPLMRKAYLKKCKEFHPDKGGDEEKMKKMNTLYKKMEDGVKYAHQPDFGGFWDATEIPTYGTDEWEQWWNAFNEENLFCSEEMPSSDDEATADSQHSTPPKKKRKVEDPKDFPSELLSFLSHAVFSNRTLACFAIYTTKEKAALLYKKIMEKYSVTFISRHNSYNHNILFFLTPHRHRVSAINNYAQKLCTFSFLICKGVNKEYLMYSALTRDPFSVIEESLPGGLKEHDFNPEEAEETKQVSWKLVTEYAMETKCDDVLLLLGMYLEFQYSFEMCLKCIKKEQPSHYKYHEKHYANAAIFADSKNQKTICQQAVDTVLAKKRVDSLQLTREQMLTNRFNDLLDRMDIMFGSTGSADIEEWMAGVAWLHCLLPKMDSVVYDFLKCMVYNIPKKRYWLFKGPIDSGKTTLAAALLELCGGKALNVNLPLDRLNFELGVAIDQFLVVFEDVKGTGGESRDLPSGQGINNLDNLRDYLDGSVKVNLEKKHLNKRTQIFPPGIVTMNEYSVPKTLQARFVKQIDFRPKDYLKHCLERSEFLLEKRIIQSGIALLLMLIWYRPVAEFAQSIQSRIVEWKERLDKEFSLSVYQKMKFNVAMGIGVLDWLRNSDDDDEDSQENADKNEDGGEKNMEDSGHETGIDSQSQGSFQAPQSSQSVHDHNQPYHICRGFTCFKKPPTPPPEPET

[9] = molecular target: Eukaryotic translation initiation factor 4E (Mus musculus, UniProt P63073); assay: blockers of eIF4G binding by eIF4E – biochemical, TR-FRET, dose response (AID 855); format: functional;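 also: potency for disrupting eIF4E binding to eIF4GI seen as loss of FRET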
[10] = tested on: Streptococcus sp. 'group A'; assay: Streptococcus pyogenes SK(-)GAS viability under kanamycin – luminescence, BacTiterGlo, confirmation, counter-screen for streptokinase expression inhibitor project, dose response (AID 1900); format: functional, organism-based
[11] = molecular target: T4, Protein RecA (Mycobacterium tuberculosis, UniProt P9WHJ3); assay: Fluorescence Cell-Free Homogeneous Dose Retest to Identify Inhibitors of RecA-Intein Splicing Activity. [Related pubchem assays (depositor defined):AID2097, AID2223, AID489010, AID492950]; format: functional
T4 sequence (P9WHJ3 whole entry): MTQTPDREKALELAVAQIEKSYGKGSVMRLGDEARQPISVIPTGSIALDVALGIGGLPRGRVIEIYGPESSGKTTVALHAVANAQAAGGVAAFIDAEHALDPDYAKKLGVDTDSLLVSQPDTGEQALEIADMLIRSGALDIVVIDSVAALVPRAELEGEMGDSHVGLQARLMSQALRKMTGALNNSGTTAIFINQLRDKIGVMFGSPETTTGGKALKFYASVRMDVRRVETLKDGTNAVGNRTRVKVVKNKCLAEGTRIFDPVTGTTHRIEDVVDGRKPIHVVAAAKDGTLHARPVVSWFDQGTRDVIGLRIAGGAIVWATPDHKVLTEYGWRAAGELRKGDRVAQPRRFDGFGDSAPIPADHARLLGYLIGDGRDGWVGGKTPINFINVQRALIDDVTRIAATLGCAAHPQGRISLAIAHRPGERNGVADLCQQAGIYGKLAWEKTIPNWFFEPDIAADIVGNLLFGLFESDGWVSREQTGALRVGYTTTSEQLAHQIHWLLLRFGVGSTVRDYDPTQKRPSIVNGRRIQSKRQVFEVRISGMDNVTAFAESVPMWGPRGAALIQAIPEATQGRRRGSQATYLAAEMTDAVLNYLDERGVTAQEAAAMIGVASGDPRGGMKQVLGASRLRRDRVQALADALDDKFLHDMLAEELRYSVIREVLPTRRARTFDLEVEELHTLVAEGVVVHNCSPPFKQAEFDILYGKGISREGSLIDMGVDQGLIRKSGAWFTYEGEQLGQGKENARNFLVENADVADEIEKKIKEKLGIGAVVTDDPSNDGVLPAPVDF

[12] = molecular target: T5, Short transient receptor potential channel 4 (Mus musculus, UniProt Q9QUQ5); assay: calcium entry via TRPC4 opening agents – cell-based, HEK293 TRPC4/mu-opioid, Fluo-4 calcium, dose response (AID 434937); format: functional
T5 sequence (Q9QUQ5 whole entry): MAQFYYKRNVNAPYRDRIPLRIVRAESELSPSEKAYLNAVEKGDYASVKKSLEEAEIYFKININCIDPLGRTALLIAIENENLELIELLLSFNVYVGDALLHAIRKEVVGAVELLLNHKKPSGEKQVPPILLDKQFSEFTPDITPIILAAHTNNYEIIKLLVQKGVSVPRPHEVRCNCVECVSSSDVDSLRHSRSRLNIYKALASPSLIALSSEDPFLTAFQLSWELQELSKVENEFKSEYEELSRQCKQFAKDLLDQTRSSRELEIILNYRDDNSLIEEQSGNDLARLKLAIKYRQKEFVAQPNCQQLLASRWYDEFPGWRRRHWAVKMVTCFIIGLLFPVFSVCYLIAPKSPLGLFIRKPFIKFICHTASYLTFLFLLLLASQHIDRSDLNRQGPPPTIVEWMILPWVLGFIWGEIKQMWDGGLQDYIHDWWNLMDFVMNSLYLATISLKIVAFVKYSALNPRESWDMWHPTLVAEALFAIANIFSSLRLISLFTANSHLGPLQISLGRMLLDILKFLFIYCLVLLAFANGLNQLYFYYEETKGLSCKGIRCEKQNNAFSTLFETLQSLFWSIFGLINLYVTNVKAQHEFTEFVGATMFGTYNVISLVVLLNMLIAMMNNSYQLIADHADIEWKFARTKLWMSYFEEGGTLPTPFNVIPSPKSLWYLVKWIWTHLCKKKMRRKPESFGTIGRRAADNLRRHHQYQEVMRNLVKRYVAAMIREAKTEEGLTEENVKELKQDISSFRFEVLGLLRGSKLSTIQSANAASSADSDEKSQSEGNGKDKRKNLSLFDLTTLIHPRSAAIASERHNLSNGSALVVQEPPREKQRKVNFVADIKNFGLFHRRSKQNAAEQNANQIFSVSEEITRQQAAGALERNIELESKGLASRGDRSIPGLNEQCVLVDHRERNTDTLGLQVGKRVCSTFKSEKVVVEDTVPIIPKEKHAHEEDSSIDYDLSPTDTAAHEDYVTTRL

[13] = tested on: Streptococcus; assay: GAS UMAA2166 growth inhibition – luminescence, BacTiterGlo, counter-screen for streptokinase expression inhibitor project, dose response (AID 1915); format: functional, organism-based;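 also: potency for reduction of bacterial viability or growth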
[14] = fluconazole-exposed Candida albicans growth modulators – fluorescence, retest, confirmation (AID 2467); format: functional, cell-based
[15] = NIH-3T3 fibroblast cytotoxicity, dose response, cytotoxicity control, cell-based, fluorescence, Alamar Blue, secondary assay (AID 2327); format: functional;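 also: NIH-3T3 mouse fibroblasts cultured with fluconazole at 8 µg/mL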
[16] = molecular target: T6, Replicative DNA helicase DnaB (Mycobacterium tuberculosis, UniProt P9WMR3); assay: DnaB intein splicing inhibitors, dose response, biochemical, cell-free fluorescence (AID 449749); format: functional
T6 sequence (P9WMR3 whole entry): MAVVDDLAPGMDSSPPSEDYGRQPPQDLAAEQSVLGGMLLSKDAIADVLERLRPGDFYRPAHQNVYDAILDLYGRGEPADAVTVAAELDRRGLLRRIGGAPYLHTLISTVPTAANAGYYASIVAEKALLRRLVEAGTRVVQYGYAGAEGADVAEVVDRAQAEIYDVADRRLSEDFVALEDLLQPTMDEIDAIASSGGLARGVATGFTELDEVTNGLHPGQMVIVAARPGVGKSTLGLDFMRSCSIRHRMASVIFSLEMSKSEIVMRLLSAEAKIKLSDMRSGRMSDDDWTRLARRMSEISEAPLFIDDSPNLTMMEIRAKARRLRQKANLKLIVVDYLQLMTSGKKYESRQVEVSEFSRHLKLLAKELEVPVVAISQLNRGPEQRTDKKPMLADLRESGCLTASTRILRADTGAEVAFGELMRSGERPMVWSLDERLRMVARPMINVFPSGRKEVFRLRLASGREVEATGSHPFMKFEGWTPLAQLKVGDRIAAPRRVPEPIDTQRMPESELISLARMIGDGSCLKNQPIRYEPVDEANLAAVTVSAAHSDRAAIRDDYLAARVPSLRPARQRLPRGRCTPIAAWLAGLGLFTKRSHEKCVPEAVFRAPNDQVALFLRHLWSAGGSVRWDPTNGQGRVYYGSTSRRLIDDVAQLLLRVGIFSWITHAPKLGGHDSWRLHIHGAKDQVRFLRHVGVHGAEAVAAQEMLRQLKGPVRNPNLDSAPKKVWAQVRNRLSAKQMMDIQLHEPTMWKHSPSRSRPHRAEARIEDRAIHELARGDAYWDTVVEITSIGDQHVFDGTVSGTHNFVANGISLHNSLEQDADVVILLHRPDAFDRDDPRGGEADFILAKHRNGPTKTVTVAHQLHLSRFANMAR

[17] = molecular target: Integrin alpha-L (Mus musculus, UniProt P24063); assay: modulators of CD8 T cell-vesicle binding, dose response, powder samples, mouse 2C CD8+ cells (AID 504565); format: functional
Integrin alpha-L, sequence (P24063 whole entry): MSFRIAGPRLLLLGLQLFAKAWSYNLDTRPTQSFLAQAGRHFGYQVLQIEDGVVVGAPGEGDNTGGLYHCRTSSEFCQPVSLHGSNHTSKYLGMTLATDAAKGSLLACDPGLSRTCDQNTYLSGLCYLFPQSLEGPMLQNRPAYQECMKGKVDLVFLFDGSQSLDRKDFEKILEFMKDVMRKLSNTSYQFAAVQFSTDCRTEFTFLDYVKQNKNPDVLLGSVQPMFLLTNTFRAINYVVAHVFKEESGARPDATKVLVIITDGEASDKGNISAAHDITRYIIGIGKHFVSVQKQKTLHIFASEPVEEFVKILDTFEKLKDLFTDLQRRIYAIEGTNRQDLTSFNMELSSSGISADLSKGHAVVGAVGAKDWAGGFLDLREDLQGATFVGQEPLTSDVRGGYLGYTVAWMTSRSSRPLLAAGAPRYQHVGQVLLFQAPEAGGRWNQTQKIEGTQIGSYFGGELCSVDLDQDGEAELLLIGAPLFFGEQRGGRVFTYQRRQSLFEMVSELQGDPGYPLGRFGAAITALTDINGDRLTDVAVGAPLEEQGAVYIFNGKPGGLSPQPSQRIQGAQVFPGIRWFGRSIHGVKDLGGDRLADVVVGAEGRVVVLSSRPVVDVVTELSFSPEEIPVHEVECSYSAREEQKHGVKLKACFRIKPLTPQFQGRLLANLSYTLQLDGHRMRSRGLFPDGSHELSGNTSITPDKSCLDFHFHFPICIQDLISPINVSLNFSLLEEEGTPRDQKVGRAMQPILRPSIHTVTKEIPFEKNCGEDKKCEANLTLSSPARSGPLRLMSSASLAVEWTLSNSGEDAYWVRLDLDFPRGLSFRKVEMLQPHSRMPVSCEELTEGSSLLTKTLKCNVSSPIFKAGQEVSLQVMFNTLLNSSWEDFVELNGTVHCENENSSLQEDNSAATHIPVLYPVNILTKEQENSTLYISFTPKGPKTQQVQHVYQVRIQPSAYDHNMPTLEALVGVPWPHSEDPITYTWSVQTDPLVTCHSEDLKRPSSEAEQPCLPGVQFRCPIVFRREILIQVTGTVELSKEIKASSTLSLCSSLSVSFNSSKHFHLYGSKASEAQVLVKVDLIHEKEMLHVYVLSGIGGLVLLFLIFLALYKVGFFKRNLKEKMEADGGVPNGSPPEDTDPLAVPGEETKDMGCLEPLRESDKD

Nc1c(C(=O)NCc2ccccc2)sc2nc(N3CCOCC3)c3c(c12)CCCC3
AC50 [1]: 14.8 µM (active)

COc1cccc2sc3ccc(NCCC4CCCN4C)cc3c(=O)c12 (centres undefined)
AC50 [2]: 22.8 µM (active)
EC50 [3]: > 100 µM (inactive)

CCOc1ccc2nc(O)c(CN(CCO)C(c3nnnn3C3CCCCC3)C(C)C)cc2c1 (centres undefined)
IC50 [4]: > 79 µM (inactive)
EC50 [3]: > 100 µM (inactive)

O=C(CSc1nc2ccccc2n1CCc1ccccc1)c1ccc(O)c(O)c1
IC50 [5]: 9.4 µM (active)
IC50 [6]: > 50 µM (inactive)
CC50 [7]: > 40 µM (active)
IC50 [8]: 35.9 µM (active)
IC50 [9]: 23.7 µM (active)

O=C1/C(=C\c2cc([N+](=O)[O-])ccc2O)SC(=S)N1Cc1ccc(Cl)cc1
EC50 [10]: 2.43 µM (active)
EC50 [11]: 1.76 µM (active)
EC50 [12]: 4.73 µM (active)
EC50 [13]: 2.2 µM (active)
EC50 [14]: 0.688 µM (active)
EC50 [15]: > 160 µM (inactive)
AC50 [16]: 12.1 µM (active)

O=C(NCC1CCCCC1)c1ccc(Cl)c(S(=O)(=O)N2CCOCC2)c1
EC50 [17]: 20.1 µM (active)

Cc1ccc(C)c(CN2CCC(CNC(=O)CCc3nnc4ccc(N5CCCCC5)nn34)CC2)c1
EC50 [12]: 0.299 µM (active)
